US20080260716A1, “Method and Composition for High Level Disinfection Employing Quaternary Ammonium Compounds” (priority 2004, published 2008)
Like-named read-outs stand apart in the source and are kept apart here.

Key:
Mycobacterium terrae = assay: AOAC tuberculocidal test, kill time; assay type: cell-based; settings: for Kill Time M. terrae: tests 7.1-7.4, 1% of the quat, 50° C.
Text: These standards are based on the known or possible risk of contamination of a particular medical device by a particular micro-organism, the pathogenic nature of the organism and other principles in infection control. […] The test panels and criteria are different for “low”, “intermediate” or “high-level disinfection”. These terms are herein used in accordance with current Food and Drug Administration (“FDA”) criteria for levels of disinfection which are detailed in Premarket Notification [510(k)] Submissions for Liquid Chemical Sterilants and High Level Disinfectants FDA 1997: “A germicide that inactivates all microbial pathogens except large number of bacterial endospores when used according to labelling”. In brief, the FDA regulatory requirement for high level disinfectants includes as the most challenging test a 100% kill of Mycobacterium tuberculosis var. bovis (or a specific strain of a suitable surrogate, such as Mycobacterium terrae) in 400 p.p.m. hard water in the presence of 2% horse serum in a quantitative tuberculocidal test.
In the following tables unless otherwise specified references to “kill time” mean the time required to achieve complete kill as defined in the relevant AOAC test (more particularly identified in annexure 1). “No kill” means less than 2 log reduction from the initial population. Unless otherwise specified “QUAT” is benzalkonium chloride, specifically Gardiquat NC-50 (Albright & Wilson). Test points for vegetative bacteria (M. terrae) were 2, 5, 10, 20 and 60 mins. Test points for spores were 0.5, 1, 2, 4, 16, 24, 48 hours. The last column in each table indicates whether the tested combination satisfies the FDA requirement for high level disinfection (“HLD”) or fails to do so (“F”).
AOAC tests for determination of High level Disinfection as defined in current FDA criteria (detailed in “Premarket Notification [510(k)] Submissions for Liquid Chemical Sterilants and High Level Disinfectants FDA 1993”.):
AOAC Tuberculocidal Activity of Disinfectants
AOAC Ref No 965.12, AOAC Official Methods of Analysis (1995)

B. subtilis spores = assay: AOAC sporicidal test, kill time; assay type: cell-based; settings: 50° C.
C. sporogens spores = assay: AOAC sporicidal test, kill time; assay type: cell-based; settings: 50° C.
[1] = test system: Mycobacterium terrae, B. subtilis, C. sporogens; design: key: satisfies the FDA requirement for high level disinfection (“HLD”); fails to do so (“F”)
[2] = 30 min, 20° C. (Sporox); cited from earlier work
[3] = tests 7.1-7.4, 1% of the quat, 50° C.

CCCCCCCCCC[N+](C)(C)CCCCCCCCCC.[Cl-] [Quat(1), Didecyl Dimethyl Ammonium Chloride]
Kill Time M. terrae (Mycobacterium terrae): <10 min
Kill Time B. subtilis (B. subtilis spores; test 7.1, 1% Quat(1)): <2 h
Kill Time C. sporogens (C. sporogens spores; test 7.1, 1% Quat(1)): <2 h
HLD or F [1, 3]: HLD

CCCCCCCC[N+](C)(C)CCCCCCCC.[Cl-] [Quat(2), Dioctyl Dimethyl Ammonium Chloride]
Kill Time M. terrae (Mycobacterium terrae): <10 min
Kill Time B. subtilis (B. subtilis spores; tests 7.2-7.4, 1% of the quat): <2 h
Kill Time C. sporogens (C. sporogens spores; tests 7.2-7.4, 1% of the quat): <2 h
HLD or F [1, 3]: HLD

CC(C)(C)CC(C)(C)c1ccc(OCCOCC[N+](C)(C)Cc2ccccc2)cc1 [benzethonium chloride, reference compound]
effectiveness against Mycobacterium (Mycobacterium terrae; 0.25%, temperatures above 60° C., with ultrasound): not effective
HLD or F ([1]; test 1.3, 0.25% benzethonium chloride, 0.25% Triton X-100, 5% isopropanol, 62° C. + ultrasound 20 min/hr): F

OO [peroxide, hydrogen peroxide]
minimum effective concentration for high-level disinfection [2]: 6.0%

N-Alkyl Dimethyl Ammonium Chloride [Quat(3)]
Kill Time M. terrae (Mycobacterium terrae): <10 min
Kill Time B. subtilis (B. subtilis spores; tests 7.2-7.4, 1% of the quat): <2 h
Kill Time C. sporogens (C. sporogens spores; tests 7.2-7.4, 1% of the quat): <2 h
HLD or F [1, 3]: HLD
